{"source": "patent US20050282889A1", "about": "“Intracorporeal medicaments for photodynamic treatment of disease” (priority 1996, published 2005)", "key": {"[1]": {"assay": "Serum level after per oesophageal administration", "format": "in vivo", "details": "approximately 10% W/V solution p.o."}, "[2]": {"test_system": "renal adenocarcinoma", "assay": "Per oesophageal Rose Bengal plus 532 nm light, murine renal adenocarcinoma tumor model", "format": "in vivo, Balb C Nude (nu/nu) mice"}, "[3]": {"test_system": "tumor cell suspensions (e.g. melanoma, breast tumor, liver tumor, renal carcinoma, gall bladder tumor or prostate tumor)", "assay": "Photodynamic treatment of subcutaneous primary tumors in nude mice", "format": "in vivo"}, "[4]": {"test_system": "Renal Adenocarcinoma", "assay": "Intratumoral injection plus light, murine tumor model", "format": "in vivo", "details": "for No. Tumors Cured: 4 treated"}, "[5]": {"test_system": "Human Breast Adenocarcinoma (MCF-7)", "assay": "Intratumoral injection plus light, murine tumor model", "format": "in vivo", "details": "i.t. approx. 30 μL 10% solution, tumor 3 × 4 × 4 mm, 100 J/cm^2 532 nm"}, "[6]": {"test_system": "thyroid tumor", "assay": "Intratumoral Rose Bengal plus green light", "format": "in vivo", "details": "approximately 10% W/V solution i.t.; green light 500-600 nm"}, "[7]": {"test_system": "antibiotic resistant Staphylococcus aureus", "assay": "Photodynamic eradication of microbes", "format": "cell-based", "details": "aqueous solution approximately 1 to 10 micromolar; green light 500-600 nm"}, "[8]": {"test_system": "procaryotic or eucaryotic cell cultures", "assay": "Dark and light cytotoxicity in cell cultures", "format": "cell-based", "details": "concentrations equivalent to or greater than 100 mg/kg", "from_the_text": "Further, the inventors of the present invention have shown that these agents are readily cleared from healthy tissues in a matter of several hours and are known to be rapidly excreted in bile, urine and feces, without doing damage to those healthy tissues while it was there."}, "[9]": {"test_system": "cutaneous lipocytes", "assay": "Systemic administration to obese mice: accumulation in and photodynamic destruction of cutaneous lipocytes", "format": "in vivo, obese laboratory mice", "from_the_text": "For example, Rose Bengal's relatively large partition coefficient is indicative of a preference for accumulation in lipophilic tissue, such as cutaneous lipocytes."}, "[10]": {"test_system": "Escherichia coli", "assay": "Photodynamic eradication of microbes", "format": "cell-based", "details": "aqueous solution approximately 1 to 10 micromolar; green light 500-600 nm"}, "[11]": {"test_system": "metastatic breast tumor", "assay": "Intratumoral Rose Bengal plus green light", "format": "in vivo", "details": "approximately 10% W/V solution i.t.; green light 500-600 nm"}, "[12]": {"test_system": "esophageal tissue", "assay": "Per oesophageal Rose Bengal plus green light on esophageal tissue", "format": "in vivo, canines", "details": "approximately 1.0% W/V solution p.o.; green light 500-600 nm"}, "[13]": {"test_system": "various yeasts", "assay": "Photodynamic eradication of microbes", "format": "cell-based", "details": "aqueous solution approximately 1 to 10 micromolar; green light 500-600 nm"}, "[14]": {"test_system": "prostate tumor", "assay": "Intratumoral Rose Bengal plus green light", "format": "in vivo", "details": "approximately 10% W/V solution i.t.; green light 500-600 nm"}, "[15]": {"test_system": "lung tumor", "assay": "Intratumoral Rose Bengal plus green light", "format": "in vivo", "details": "approximately 10% W/V solution i.t.; green light 500-600 nm"}, "[16]": {"assay": "Absorbance properties of halogenated xanthenes (λmax, α)", "format": "physicochemical", "from_the_text": "Certain general properties of this class of agents are discussed in further detail in U.S. Ser. No. 09/130,041, filed on Aug. 6, 1998, U.S. Ser. No. 09/184,388, filed on Nov. 2, 1998, and U.S. Ser. No. 09/216,787, filed on Dec. 21, 1998, which are herein incorporated by reference in their entirety."}, "[17]": {"assay": "Retention of agent after intratumoral or peritumoral injection", "details": "mouse, in vivo", "experimental": "Initially, tumor cell suspensions (e.g. melanoma, breast tumor, liver tumor, renal carcinoma, gall bladder tumor or prostate tumor) were injected subcutaneously into the flanks of nude mice resulting in formation of primary tumors, within a few weeks, at the injection site having a volume of approximately 0.1 cm^3 to 0.5 cm^3."}, "[18]": {"test_system": "cutaneous tumors", "assay": "Per oesophageal Rose Bengal plus green light, mice with cutaneous tumors", "format": "in vivo", "details": "approximately 10% W/V solution p.o.; green light 500-600 nm"}, "[19]": {"test_system": "BNL/SV40 Liver Cell", "assay": "Intratumoral injection plus light, murine tumor model", "format": "in vivo", "details": "i.t. approx. 30 μL 10% solution, tumor 8 × 10 × 5 mm, 50 J/cm^2 532 nm"}, "[20]": {"assay": "Photochemical quantum yields (triplet, singlet oxygen)", "format": "physicochemical"}, "[21]": {"details": "No Light control, 0 J/cm^2, i.t. 10% solution, tumor 2 × 3 × 3 mm"}, "[22]": {"details": "i.t. approx. 30 μL 10% solution, tumor 2 × 3 × 3 mm, 100 J/cm^2 532 nm"}, "[23]": {"details": "i.t. approx. 30 μL 10% solution, tumor 5 × 8 × 8 mm, 100 J/cm^2 532 nm"}}}
{"smiles": "O=C1OC2(c3cc(I)c(O)c(I)c3Oc3c2cc(I)c(O)c3I)c2c(Cl)c(Cl)c(Cl)c(Cl)c21", "note": "[Rose Bengal, 4,5,6,7-tetrachloro-2′,4′,5′,7′-Tetraiodofluorescein]", "values": [{"measurement": "Serum levels of Rose Bengal", "setting": "[1]", "value": "transient elevation of serum levels"}, {"measurement": "Cure Rate", "setting": "[2]; 10% solution p.o. approx. 50 mg/kg, 100 J/cm^2 532 nm, latency 3 hr", "value": "60% (3/5)"}, {"measurement": "No. Tumors With Positive Response", "setting": "[2]; 10% solution p.o. approx. 50 mg/kg, 100 J/cm^2 532 nm, latency 3 hr, 5 tumors treated, eschar at tumor site 24 h after illumination", "value": 3}, {"measurement": "Cure Rate", "setting": "[2]; 10% solution p.o. approx. 50 mg/kg, 100 J/cm^2 532 nm, latency 20 hr", "value": "78% (7/9)"}, {"measurement": "No. Tumors With Positive Response", "setting": "[2]; 10% solution p.o. approx. 50 mg/kg, 100 J/cm^2 532 nm, latency 20 hr, 9 tumors treated", "value": 7}, {"measurement": "Cure Rate", "setting": "[2]; No Light control, 0 J/cm^2, p.o. approx. 50 mg/kg", "value": "0% (0/2)"}, {"measurement": "No. Tumors With Positive Response", "setting": "[2]; No Light control, 0 J/cm^2, p.o. approx. 50 mg/kg, 2 tumors treated", "value": 0}, {"measurement": "Damage in peritumoral tissues", "setting": "[2]; p.o. approx. 50 mg/kg, tumor and peritumoral area illuminated, 100 J/cm^2 532 nm", "value": "eschar formation selectively at the tumor site. No damage was noted in peritumoral tissues. “No Light” and"}, {"measurement": "Tumor response after p.o. administration and illumination", "setting": "[3]; 10-30 μL of 10% solution (1-3 mg) p.o., 532 nm, 50-200 J/cm^2, 3-48 hours post administration", "value": "selective destruction of tumor tissue with no substantive effect in healthy surrounding tissue"}, {"measurement": "Tumor response after intratumoral injection and illumination", "setting": "[3]; i.t., similar formulation, light at 532 nm", "value": "selective tumor destruction"}, {"measurement": "Cure Rate", "setting": "[4]; [21]", "value": 0, "unit": "%"}, {"measurement": "No. Tumors Cured", "setting": "[4]; [21]", "value": 0}, {"measurement": "Cure Rate", "setting": "[4]; [22]", "value": 100, "unit": "%"}, {"measurement": "No. Tumors Cured", "setting": "[4]; [22]", "value": 4}, {"measurement": "Cure Rate", "setting": "[4]; [23]", "value": 50, "unit": "%"}, {"measurement": "No. Tumors Cured", "setting": "[4]; [23]", "value": 2}, {"measurement": "Cure Rate", "setting": "[5]", "value": 100, "unit": "%"}, {"measurement": "No. Tumors Cured", "setting": "[5]; 2 treated", "value": 2}, {"measurement": "Tumor response", "setting": "[6]", "value": "controlled, localized photodynamic eradication"}, {"measurement": "Eradication of microbes", "setting": "[7]", "value": "substantial or complete eradication"}, {"measurement": "Light cytotoxicity: effect on cell cultures", "setting": "[8]; light between about 500 nm and 600 nm", "value": "immediate and complete kill"}, {"measurement": "Dark cytotoxicity: effect on viability of cultures", "setting": "[8]; no illumination", "value": "no measurable effect on the viability"}, {"measurement": "Tissue accumulation after systemic administration", "setting": "[9]; aqueous solution i.p. or p.o., cutaneous fat deposits of obese mice", "value": "highly selective accumulation"}, {"measurement": "Photodynamic effect on lipocytes", "setting": "[9]; illumination of skin at approximately 532 nm after systemic administration", "value": "selective photodynamic destruction of such lipocytes with no effect in overlying skin or underlying muscle tissue"}, {"measurement": "Eradication of microbes", "setting": "[10]", "value": "substantial or complete eradication"}, {"measurement": "Tumor response", "setting": "[11]", "value": "controlled, localized photodynamic eradication"}, {"measurement": "Tissue response in illuminated region", "setting": "[12]", "value": "controlled, localized photodynamic destruction of tissues in the treated region"}, {"measurement": "Eradication of microbes", "setting": "[13]", "value": "substantial or complete eradication"}, {"measurement": "Tumor response", "setting": "[14]", "value": "controlled, localized photodynamic eradication"}, {"measurement": "Tumor response", "setting": "[15]", "value": "controlled, localized photodynamic eradication"}, {"measurement": "α", "setting": "[16]", "value": 100000, "unit": "L/cm/mol"}, {"measurement": "λmax (nm) EtOH", "setting": "[16]; EtOH", "value": 557, "unit": "nm"}, {"measurement": "λmax (nm) H2O", "setting": "[16]; H2O", "value": 547, "unit": "nm"}, {"measurement": "λmax (nm) MeOH", "setting": "[16]; MeOH", "value": 556, "unit": "nm"}, {"measurement": "Injected dose remaining in the tumor", "setting": "[17]", "value": "more than 75%"}, {"measurement": "Tissue localization after i.t. administration", "setting": "[17]", "value": "persistent accumulation and retention of Rose Bengal uniformly throughout the tumor volume"}, {"measurement": "Tumor response", "setting": "[18]", "value": "substantial or complete photodynamic eradication"}, {"measurement": "Cure Rate", "setting": "[19]", "value": 25, "unit": "%"}, {"measurement": "No. Tumors Cured", "setting": "[19]; 8 treated, reoccurrence at 2-3 weeks", "value": 2}, {"measurement": "φ (singlet oxygen) EtOH", "setting": "[20]; EtOH", "value": 0.75}, {"measurement": "φ (singlet oxygen) H2O", "setting": "[20]; H2O", "value": 0.86}, {"measurement": "φ (singlet oxygen) MeOH", "setting": "[20]; MeOH", "value": 0.76}, {"measurement": "φ (triplet) MeOH", "setting": "[20]; MeOH", "value": 0.76}]}
